We go through one molecule from article PMC9481570, “A small molecule antagonist of SMN disrupts the interaction between SMN and RNAP II” (Nature Communications, 2022).

This assay addresses T1, SMN_W102Y (Homo sapiens, UniProt Q16637, W102Y).
T1 construct: SMN (aa 82–147); His (N, cleaved yes); made in house; host or cells: E. coli BL21 (DE3) Codon plus RIL
Nature of the assay: ITC binding to SMN Tudor mutant W102Y. Particulars: Fig. 3d. An excerpt: The coding DNA fragments of following Tudor domains were cloned into pET28-MHL vector: SMN (aa 82–147), UHRF1 (aa 126–285), SMNDC1 (aa 53–130), TDRD3 (aa 554–611), SND1 (aa 650–910), TDRD2 (aa 327–420), FXR1 (aa 2–132), PHF1 (aa 28–87), SGF29 (aa 115–293), JMJD2A (aa 897–1101), 53BP1 (aa 1483–1606), SETDB1 (aa 190–410), LBR (aa 1–67), ZGPAT (aa 120–271). The coding regions of chromodomain of CBX7 (aa 8–62), PWWP domain of DNMT3A (aa 275–417), WD40 repeats of WDR5 (aa 24–334) and CW domain of ZCWPW2 (aa 21–78) were also subcloned into pET28-MHL vector to generate N-terminally His-tagged fusion protein. The MBT repeats of L3MBTL1 (aa 200–522) and L3MBTL2 (aa 170–625) were subcloned into pET28GST-LIC vector to generate N-terminally GST-His-tagged fusion protein. All the plasmids were generated by ligase independent cloning (Vazyme Biotech, C112 or ABclonal Technology, RK21020). […] The molecular weight of all protein samples was measured by mass spectrometry.
For the ITC measurement, the concentrated proteins were diluted into 20 mM Tris-HCl, pH 7.5, 150 mM NaCl (ITC buffer); the lyophilized compounds were dissolved in the same buffer, and the pH value was adjusted by adding 2 M NaOH or 2 M HCl. […] Compound concentrations were calculated from the mass and the volume of the solvent. […]

T1 sequence (Q16637 82-147 W102Y): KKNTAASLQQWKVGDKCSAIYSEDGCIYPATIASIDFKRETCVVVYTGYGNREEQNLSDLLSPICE

With `Cn1c2c(c(=N)c3c1CCC3)CCC2` [Compound 1, 4-methyl-2,3,4,5,6,7-hexahydrodicyclopenta[b,e]pyridin-8(1H)-imine], binding was put at a Kd of 8.3 ± 1.1 µM.
